Broadly, the IC50 is the midpoint of a concentration-inhibition curve.

In one test the target is T1, PTK2 enzyme (Homo sapiens, UniProt Q05397).
T1 construct: purchased Invitrogen PV3832
The experiment in a line: PTK2 enzyme test, Assay 2 (DELFIA, poly-Glu-Tyr substrate, antibody PT66). Type of test: biochemical. As to conditions: Assay 2 (values marked *); 1 h pre-incubation, 0.5% DMSO. The source says:
This test uses active PTK2 enzyme (Invitrogen Code PV3832) and poly-Glu-Tyr (4:1, Sigma P-0275) as the kinase substrate. The kinase activity is detected by means of the phosphorylation of the substrate in a DELFIA™ assay. The phosphorylated substrate is detected with the europium-labelled phosphotyrosine antibody PT66 (Perkin Elmer, No.: AD0040).
In order to determine concentration-activity curves with PTK2-inhibitors the compounds are serially diluted first of all in 10% DMSO/H2O and then in kinase dilution buffer (20 mM TRIS/HCl pH 7.5, 0.1 mM EDTA, 0.1 mM EGTA, 0.286 mM sodium orthovanadate, 10% glycerol with the addition of freshly prepared BSA (fraction V, 1 mg/mL) and DTT (1 mM)) and 10 μL of each dilution are dispensed per well in a 96-well microtitre plate (clear U-shaped base plate, Greiner No. 650101) (the inhibitors are tested in duplicates) and mixed with 10 μL/well of PTK2 kinase (0.01 μg/well). PTK2 kinase is diluted accordingly beforehand with kinase dilution buffer. The diluted PTK2 inhibitor and the PTK2 kinase are pre-incubated for 1 h at RT and shaken at 500 revolutions per min. Then 10 μL/well poly-Glu-Tyr substrate (25 μg/well poly-Glu-Tyr, 0.05 μg/well biotinylated poly-Glu-Tyr dissolved in 250 mM TRIS/HCl pH 7.5, 9 mM DTT) are added. The reaction is started by the addition of 20 μL of ATP Mix (30 mM TRIS/HCl pH 7.5, 0.02% Brij, 0.2 mM sodium orthovanadate, 10 mM magnesium acetate, 0.1 mM EGTA, 1× phosphatase inhibitor cocktail 1 (Sigma, No.: P2850), 50 μM ATP (Sigma, No.: A3377; 15 mM stock solution))—the final concentration of DMSO is 0.5%. After 1 h kinase reaction (the plates are shaken at 500 rpm), the reaction is stopped by the addition of 12 μL/well of 100 mM EDTA, pH 8, and shaken for a further 5 min at RT (500 U/min). 55 μL of the reaction mixture are transferred into a streptavidin plate (Strepta Well High Bind (transparent, 96-well) made by Roche, No.: 11989685001) and incubated for 1 h at RT (shaking at 500 rpm). Then the microtitre plate is washed five times with 200 μL/well D-PBS (Invitrogen, No. 14190). 100 μL of a solution containing DELFIA Eu-N1 Anti-Phosphotyrosine PT66 antibody (Perkin Elmer, No.: AD0040, diluted 1:9000 in DELFIA test buffer (Perkin Elmer, No.: 1244-111)) is then added and it is incubated for 1 h at RT (shaking at 500 rpm). Then the plate is washed five times with 200 μL/well DELFIA washing buffer (Perkin Elmer, No.: 1244-114), 200 μL/well strengthening solution (Perkin Elmer, No.: 1244-105) is added and the whole is incubated for 10 min at RT (shaking at 300 rpm).
The time-delayed europium fluorescence is then measured in a microtitre plate reader (Victor, Perkin Elmer). The positive control consists of wells that contain solvent (0.5% DMSO in test buffer) and display uninhibited kinase activity. Wells that contain test buffer instead of enzyme act as a control for the background kinase activity.
The IC50 values are determined from concentration-activity analyses by iterative calculation using a sigmoid curve analysis algorithm (FIFTY, based on Graph PAD Prism Version 3.03) with a variable Hill coefficient.

For test [1], the target named is T2, Xenopus laevis Aurora B/INCENP complex (Xenopus laevis, UniProt Q6DE08).
T2 construct: equipped at the N-terminal position with a GST tag (amino acids 60-361); GST (N, cleaved yes); made in house; host or cells: E. coli BL21 (DE3)
As to the kind of experiment: Aurora-B kinase assay (radioactive enzyme inhibition). Type of test: biochemical. An excerpt:
A radioactive enzyme inhibition assay was developed using E. coli-expressed recombinant Xenopus laevis Aurora B wild-type protein equipped at the N-terminal position with a GST tag (amino acids 60-361) in a complex with Xenopus laevis INCENP (amino acids 790-847), which is obtained from bacteria and purified. In equivalent manner a Xenopus laevis Aurora B mutant (G96V) in a complex with Xenopus laevis INCENP^790-847 may also be used.
The coding sequence for Aurora-B^60-361 from Xenopus laevis is cloned into a modified version of pGEX-6T (Amersham Biotech) via BamHI and SalI cutting sites. The vector contains two cloning cassettes which are separated by a ribosomal binding site, allowing bi-cistronic expression. In this configuration Xenopus laevis Aurora B is expressed by the first cassette, and the Xenopus laevis INCENP^790-847 is expressed by the second cassette. The resulting vector is pAUB-IN^847.
First of all the E. coli strain BL21 (DE3) is co-transformed with pUBS520 helper plasmid and pAUB-IN^847, after which protein expression is induced using 0.3 mM IPTG at an OD600 of 0.45-0.7. The expression is then continued for approx. 12-16 h at 23-25° C. with agitation.
The bacteria are then removed by centrifuging and the pellet is lysed in lysis buffer (50 mM Tris/Cl pH 7.6, 300 mM NaCl, 1 mM DTT, 1 mM EDTA, 5% glycerol, Roche Complete Protease Inhibitor tablets) using ultrasound, using 20-30 mL lysis buffer per litre of E. coli culture. The lysed material is freed from debris by centrifugation (12000 rpm, 45-60 min, JA20 rotor). The supernatant is incubated with […] of equilibrated GST Sepharose Fast Flow (Amersham Biosciences) per litre of E. coli culture for 4-5 h at 4° C. Then the column material is washed with 30 volumes of lysis buffer and then equilibrated with 30 volumes of cleavage buffer (50 mM Tris/Cl pH 7.6, 150 mM NaCl, 1 mM DTT, 1 mM EDTA). To cleave the GST tag from Aurora B, 10 units of Prescission Protease (Amersham Biosciences) are used per milligram of substrate and the mixture is incubated for 16 h at 4° C. The supernatant which contains the cleavage product is loaded onto a 6 mL Resource Q column (Amersham Biosciences) equilibrated with ion exchange buffer (50 mM Tris/Cl pH 7.6, 150 mM NaCl, 1 mM DTT, 1 mM EDTA). The Aurora B/INCENP complex is caught as it flows through, then concentrated and loaded onto a Superdex 200 size exclusion chromatography (SEC) column equilibrated with SEC buffer (10 mM Tris/Cl pH 7.6, 150 mM NaCl, 1 mM DTT, 1 mM EDTA). Fractions which contain the AuroraB/INCENP complex are collected and concentrated using Vivaspin concentrators (molecular weight exclusion 3000-5000 Da) to a final concentration of 12 mg/mL. Aliquots (e.g. 240 ng/μL) for kinase assays are transferred from this stock solution into freezing buffer (50 mM Tris/Cl pH 8.0, 150 mM NaCl, 0.1 mM EDTA, 0.03% Brij-35, 10% glycerol, 1 mM DTT) and stored at −80° C.
Test substances are placed in a polypropylene dish (96 wells, Greiner #655 201), in order to cover a concentration frame of 10 μM-0.0001 μM. The final concentration of DMSO in the assay is 5%. 30 μL of protein mix (50 mM Tris/Cl pH 7.5, 25 mM MgCl2, 25 mM NaCl, 167 μM ATP, 10 ng Xenopus laevis Aurora B/INCENP complex in freezing buffer) are pipetted into the 10 μl of test substance provided in 25% DMSO and this is incubated for 15 min at RT. Then 10 μL of peptide mix (100 mM Tris/Cl pH 7.5, 50 mM MgCl2, 50 mM NaCl, 5 μM NaF, 5 μM DTT, 1 μCi gamma-P33-ATP [Amersham], 50 μM substrate peptide [biotin-EPLERRLSLVPDS or multimers thereof, or biotin-EPLERRLSLVPKM or multimers thereof, or biotin-[…]]) are added. The reaction is incubated for 75 min (ambient temperature) and stopped by the addition of 180 μL of 6.4% trichloroacetic acid and incubated for 20 min on ice. […]

Each structure is given as a SMILES string.

T2 sequence (Q6DE08 60-361): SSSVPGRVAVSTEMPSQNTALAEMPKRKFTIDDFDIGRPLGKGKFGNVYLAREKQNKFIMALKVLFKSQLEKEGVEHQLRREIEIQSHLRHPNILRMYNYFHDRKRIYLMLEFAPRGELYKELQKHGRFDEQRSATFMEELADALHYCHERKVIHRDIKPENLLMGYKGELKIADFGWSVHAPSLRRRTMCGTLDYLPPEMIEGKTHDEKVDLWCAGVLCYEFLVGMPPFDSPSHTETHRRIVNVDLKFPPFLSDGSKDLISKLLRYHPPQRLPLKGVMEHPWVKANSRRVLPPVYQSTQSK
T2 sequence (O13024 790-847 partner): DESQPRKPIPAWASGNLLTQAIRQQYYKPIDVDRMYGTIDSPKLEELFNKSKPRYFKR
T1 sequence (Q05397 whole entry): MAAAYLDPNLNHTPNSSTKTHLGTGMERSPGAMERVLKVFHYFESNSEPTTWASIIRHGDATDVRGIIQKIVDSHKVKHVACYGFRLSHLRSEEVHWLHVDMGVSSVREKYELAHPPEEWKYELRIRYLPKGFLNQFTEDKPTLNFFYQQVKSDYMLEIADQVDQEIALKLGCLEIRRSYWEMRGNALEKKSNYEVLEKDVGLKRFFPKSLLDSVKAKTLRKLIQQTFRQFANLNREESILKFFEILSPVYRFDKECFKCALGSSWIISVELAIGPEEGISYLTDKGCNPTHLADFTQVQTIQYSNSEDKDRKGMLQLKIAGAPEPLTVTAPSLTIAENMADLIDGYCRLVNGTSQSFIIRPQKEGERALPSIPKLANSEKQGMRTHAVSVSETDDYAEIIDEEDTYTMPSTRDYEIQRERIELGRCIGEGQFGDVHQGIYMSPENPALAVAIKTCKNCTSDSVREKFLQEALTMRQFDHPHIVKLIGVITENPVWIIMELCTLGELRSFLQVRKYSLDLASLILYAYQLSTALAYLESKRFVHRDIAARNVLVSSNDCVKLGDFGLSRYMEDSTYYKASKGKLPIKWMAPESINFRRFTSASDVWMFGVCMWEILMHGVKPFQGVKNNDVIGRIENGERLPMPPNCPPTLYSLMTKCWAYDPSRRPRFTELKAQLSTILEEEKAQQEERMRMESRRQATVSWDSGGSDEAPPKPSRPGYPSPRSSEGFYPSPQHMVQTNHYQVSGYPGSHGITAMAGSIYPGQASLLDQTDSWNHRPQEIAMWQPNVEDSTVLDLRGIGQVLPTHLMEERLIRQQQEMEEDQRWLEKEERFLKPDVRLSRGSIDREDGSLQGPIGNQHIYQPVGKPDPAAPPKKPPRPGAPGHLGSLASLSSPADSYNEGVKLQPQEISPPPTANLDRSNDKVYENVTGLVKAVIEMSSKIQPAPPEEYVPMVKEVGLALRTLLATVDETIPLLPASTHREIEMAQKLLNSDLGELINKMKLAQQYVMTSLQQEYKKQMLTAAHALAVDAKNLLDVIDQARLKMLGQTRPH

For the compound `COc1ccc(C(=O)NCCN(C)C)cc1Nc1ncc(C(F)(F)F)c(N[C@@H]2CCCC[C@H]2N(C)S(C)(=O)=O)n1` [Example I-144], the IC50 at PTK2 enzyme is 0.76 nM; in test [1], over 9000 nM.
On the same counts, the results for `COc1cc(NC(=O)[C@H]2CCCN2C)ccc1Nc1ncc(C(F)(F)F)c(N[C@@H]2CCCC[C@H]2N(C)S(C)(=O)=O)n1` [Example I-146] are 0.58 nM and 413 nM.
On the same counts, the results for `CNC(=O)c1cc(OC)c(Nc2ncc(C(F)(F)F)c(N[C@@H]3CCCC[C@H]3NS(C)(=O)=O)n2)cc1C` [Example I-152] are 0.41 nM and 1590 nM.
The corresponding values for `CCc1cc(Nc2ncc(C(F)(F)F)c(N[C@@H]3CCC[C@H]3N(C)S(C)(=O)=O)n2)c(OC)cc1N1CCNCC1` [Example I-153] are 0.69 nM and over 10000 nM.
For the compound `COc1cc(NC(=O)C2CCN(C)CC2)ccc1Nc1ncc(C(F)(F)F)c(N[C@@H]2CCCC[C@H]2N(C)S(C)(=O)=O)n1` [Example I-155], the IC50 against PTK2 enzyme is 0.93 nM; in test [1], 245 nM.
On the same counts, the results for `COc1cc(N2CCN(C(C)(C)C)CC2)c(C)cc1Nc1ncc(C(F)(F)F)c(N[C@@H]2CCCC[C@H]2N(C)S(C)(=O)=O)n1` [Example I-158] are 1 nM and over 10000 nM.
On the same counts, the results for `COCCN1CCC(NC(=O)c2cc(OC)c(Nc3ncc(Cl)c(N[C@@H]4CCC[C@H]4N(C)S(C)(=O)=O)n3)cc2Cl)CC1` [Example I-166] are 0.49 nM and 1140 nM.
On the same counts, the results for `COc1cc(C(=O)NC2CCOCC2)c(C)cc1Nc1ncc(C(F)(F)F)c(N[C@@H]2CCC[C@H]2NS(C)(=O)=O)n1` [Example I-195] are 0.32 nM and 641 nM.
